Measured values taken from ChEMBL document CHEMBL1201862, “PubChem BioAssay data set” (2004).
The source made the active and inactive calls.

Experiments:
[1] = target: Muscarinic acetylcholine receptor M1 (Rattus norvegicus, UniProt P08482); assay: concentration-dependent potentiation of ACh at M1 – cell-based, calcium mobilization, CHO-K1, ACh EC20, dose response (AID 2425); assay type: functional
[2] = lung carcinoma cell viability loss – CellTiter-Glo luminescence, dry powder, set 17, dose response (AID 1117284); assay type: functional, cell-based; conditions: A549
[3] = RKO cell viability reduction, dose response, CellTiter-Glo luminescence (AID 1117322); assay type: functional
[4] = CellTiter-Glo luminescence survival assay, SW480 colon tumor line, concentration-response curve, half-maximal inhibitory concentration (AID 1117338); assay type: functional
[5] = cytotoxicity toward HCT116 cells – cell-based, CellTiter-Glo luminescence, IC50, dose response (AID 1117332); assay type: functional; conditions: HCT-116
[6] = cytotoxicity toward HT-29 cells – cell-based, CellTiter-Glo luminescence, IC50, dose response (AID 1117330); assay type: functional
[7] = Reduced DLD-1 viability, concentration-response, CellTiter-Glo luminescence (AID 1117352); assay type: functional
[8] = SNU-C1 cell viability reduction, dose response, CellTiter-Glo luminescence (AID 1117323); assay type: functional, cell-based
[9] = HCT116 cell viability decrease, GSK3B pretreatment – CellTiter-Glo, IC50, dose response (AID 1117339); assay type: functional; conditions: HCT-116
cells = assay type: functional, cell-based; conditions: INS-1E
[10] = IC50 of insulin release inhibition, rat insulinoma INS-1E line, 5 mM glucose, cell-based (AID 1117331); assay type: functional
[11] = viability loss in human Jurkat cells – cell-based, luminescence, cytotoxicity control for P. falciparum gametocyte viability project, dose response (AID 1117277); assay type: functional;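 also: potency reflects loss of cellular ATP meaning fewer viable cells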
[12] = viability inhibitors of stage V gametocytes – luminescence, dose response (AID 1117278); assay type: functional, cell-based;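 also: gametocytes exposed to compound for 24 hours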
[13] = target: T1, Sentrin-specific protease 8 (Homo sapiens, UniProt Q96LD8); assay type: functional
T1 sequence (Q96LD8 whole entry): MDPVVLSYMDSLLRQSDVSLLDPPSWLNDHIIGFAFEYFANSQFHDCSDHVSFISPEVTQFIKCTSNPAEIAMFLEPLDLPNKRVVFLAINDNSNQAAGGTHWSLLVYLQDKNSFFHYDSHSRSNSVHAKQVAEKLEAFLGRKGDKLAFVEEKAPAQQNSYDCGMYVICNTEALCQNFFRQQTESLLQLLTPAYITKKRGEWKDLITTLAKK

[14] = target: Serine/threonine-protein phosphatase PP1-alpha catalytic subunit (Homo sapiens, UniProt P62136); assay: inhibition of protein phosphatase 1 activity – biochemical, fluorescence, dose response (AID 2394)
[15] = target: T2, Serine/threonine-protein phosphatase (Homo sapiens, UniProt Q9BPW0); assay: inhibition of protein phosphatase 5 activity – biochemical, fluorescence, dose response (AID 2395)
T2 sequence (Q9BPW0 whole entry): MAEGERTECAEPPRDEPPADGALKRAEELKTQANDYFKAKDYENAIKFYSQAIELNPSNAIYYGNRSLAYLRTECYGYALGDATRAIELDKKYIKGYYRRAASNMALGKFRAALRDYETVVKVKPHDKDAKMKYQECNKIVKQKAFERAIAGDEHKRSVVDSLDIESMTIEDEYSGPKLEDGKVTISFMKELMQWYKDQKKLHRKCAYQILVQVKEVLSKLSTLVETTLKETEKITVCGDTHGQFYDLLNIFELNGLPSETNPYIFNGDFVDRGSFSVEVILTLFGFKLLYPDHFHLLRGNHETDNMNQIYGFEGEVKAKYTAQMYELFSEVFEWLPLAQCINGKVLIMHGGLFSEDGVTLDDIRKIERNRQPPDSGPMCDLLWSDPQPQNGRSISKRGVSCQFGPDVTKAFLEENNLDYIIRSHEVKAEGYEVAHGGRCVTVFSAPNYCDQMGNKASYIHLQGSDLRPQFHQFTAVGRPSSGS

[16] = target: T3, Histone-lysine N-methyltransferase NSD2 (Homo sapiens, UniProt O96028); assay type: biochemical
T3 sequence (O96028 whole entry): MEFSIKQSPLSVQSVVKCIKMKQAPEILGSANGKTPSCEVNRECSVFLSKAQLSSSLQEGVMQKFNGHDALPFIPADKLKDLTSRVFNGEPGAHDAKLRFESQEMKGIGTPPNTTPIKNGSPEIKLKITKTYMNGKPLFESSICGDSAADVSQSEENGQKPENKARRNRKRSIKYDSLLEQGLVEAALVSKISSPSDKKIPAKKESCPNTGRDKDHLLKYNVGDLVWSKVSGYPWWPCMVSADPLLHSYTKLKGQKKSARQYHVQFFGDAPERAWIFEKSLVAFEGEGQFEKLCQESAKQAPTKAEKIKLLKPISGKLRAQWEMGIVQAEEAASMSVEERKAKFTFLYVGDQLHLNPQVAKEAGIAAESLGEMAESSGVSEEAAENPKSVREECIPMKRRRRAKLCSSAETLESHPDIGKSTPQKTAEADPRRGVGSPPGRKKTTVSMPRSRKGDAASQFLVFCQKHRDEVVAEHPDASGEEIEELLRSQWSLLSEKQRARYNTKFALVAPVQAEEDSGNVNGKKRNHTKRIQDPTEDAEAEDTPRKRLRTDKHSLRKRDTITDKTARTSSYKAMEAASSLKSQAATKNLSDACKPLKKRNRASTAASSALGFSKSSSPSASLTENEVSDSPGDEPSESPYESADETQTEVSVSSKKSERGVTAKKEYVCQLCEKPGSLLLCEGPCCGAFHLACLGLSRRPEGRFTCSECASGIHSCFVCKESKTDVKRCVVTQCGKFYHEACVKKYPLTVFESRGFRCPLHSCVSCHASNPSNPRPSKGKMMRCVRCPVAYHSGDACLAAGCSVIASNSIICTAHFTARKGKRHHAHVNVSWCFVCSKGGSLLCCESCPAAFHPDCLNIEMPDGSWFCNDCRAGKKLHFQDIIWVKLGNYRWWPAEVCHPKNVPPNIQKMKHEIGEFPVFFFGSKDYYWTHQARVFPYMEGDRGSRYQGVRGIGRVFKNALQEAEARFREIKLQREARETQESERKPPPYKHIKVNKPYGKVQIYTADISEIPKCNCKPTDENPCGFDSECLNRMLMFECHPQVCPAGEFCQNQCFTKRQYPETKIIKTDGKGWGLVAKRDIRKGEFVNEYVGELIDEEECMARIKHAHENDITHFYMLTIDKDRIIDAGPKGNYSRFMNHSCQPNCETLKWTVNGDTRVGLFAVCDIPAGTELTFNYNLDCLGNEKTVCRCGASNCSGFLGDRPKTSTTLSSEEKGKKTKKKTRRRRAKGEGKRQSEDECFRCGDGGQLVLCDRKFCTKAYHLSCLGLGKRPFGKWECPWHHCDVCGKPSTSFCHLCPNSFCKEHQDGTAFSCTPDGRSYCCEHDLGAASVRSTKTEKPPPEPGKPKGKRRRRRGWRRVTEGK

[17] = target: T1, Sentrin-specific protease 8; assay type: functional; remark: listed apart in the source
[18] = target: E3 ubiquitin-protein ligase Mdm2 (Homo sapiens, UniProt Q00987); assay: MDM2-luc reporter signal enhancers, multi-concentration potency testing, MDM2 ubiquitin-protein ligase inhibitor program, whole-cell format, luminescence detection, 384-well microplate (AID 1394); assay type: functional;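 also: MDM2 E3 inhibitors raise luminescence so EC50 is for signal enhancement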
[19] = target: T4, Microphthalmia-associated transcription factor (Homo sapiens, UniProt O75030); assay: reducers of TRPM1 reporter luminescence, concentration series – cell-based, SK-MEL-5, cherry-picked, set 3, MITF inhibitor project, dose response (AID 493073); assay type: functional;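 also: SK-MEL-5 melanoma cells with luciferase driven by the MITF target TRPM1 promoter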
T4 sequence (O75030 whole entry): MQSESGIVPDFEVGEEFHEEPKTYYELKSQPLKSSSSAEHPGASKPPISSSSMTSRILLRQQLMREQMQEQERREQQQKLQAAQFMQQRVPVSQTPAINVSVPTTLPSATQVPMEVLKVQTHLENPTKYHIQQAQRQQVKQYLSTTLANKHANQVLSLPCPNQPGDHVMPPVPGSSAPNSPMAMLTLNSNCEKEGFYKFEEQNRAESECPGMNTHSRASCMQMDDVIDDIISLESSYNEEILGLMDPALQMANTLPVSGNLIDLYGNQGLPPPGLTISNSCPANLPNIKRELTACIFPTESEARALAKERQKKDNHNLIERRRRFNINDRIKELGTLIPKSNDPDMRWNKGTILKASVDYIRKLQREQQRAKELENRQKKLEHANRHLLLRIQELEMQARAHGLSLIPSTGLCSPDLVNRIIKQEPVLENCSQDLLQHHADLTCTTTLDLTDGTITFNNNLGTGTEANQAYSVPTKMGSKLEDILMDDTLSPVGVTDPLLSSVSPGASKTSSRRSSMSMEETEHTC

Galanin receptor type 2 = Galanin receptor type 2 (Homo sapiens, UniProt O43603); assay: Dose Response cell-based high-throughput screening assay to identify antagonists of galanin receptor 2 (GALR2). [Related pubchem assays: 828, 866 ]; assay type: functional
[20] = activation of miR-122 Renilla sensor silencing – cell-based, Huh7 psiCHECK-miR122, Renilla luciferase, cherry-picked, dose response (AID 651956); assay type: functional;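 also: huh7 hepatoma cells stably carrying a psiCHECK-2 miR-122 sensor plasmid; renilla luciferase signal reporting endogenous miR-122 activity after 48 h compound exposure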
[21] = target: Sphingosine 1-phosphate receptor 4 (Homo sapiens, UniProt O95977); assay: Fluorescence dose response cell-based high throughput screening assay for antagonists of the Sphingosine 1-Phosphate Receptor 4 (S1P4). [Related pubchem assays: 1524 (Confirmation in triplicates.), 1510 (Primary screen.)]; assay type: functional
[22] = target: Sphingosine 1-phosphate receptor 1 (Homo sapiens, UniProt P21453); assay type: functional;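 also: Tango beta-arrestin reporter U2OS cells stimulated with S1P near its EC80; inhibitor potency meaning antagonism of receptor activation by the natural agonist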
[23] = general mammalian cell viability loss – activator set, cherry-pick, cytotoxicity control for miR-122 modulator project, dose response (AID 720690); assay type: functional, cell-based;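 also: HEK293T human cells scored for general mammalian cytotoxicity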
[24] = target: Mitogen-activated protein kinase 10 (Homo sapiens, UniProt P53779); assay: Dose response biochemical screening assay for inhibitors of c-Jun N-Terminal Kinase 3 (JNK3). [Related pubchem assays: 746 ]
Vero [25] = assay: inhibition of WNV-induced cytopathic effect – cell-based, CPE readout (AID 1621); assay type: functional; conditions: Chlorocebus sabaeus
[26] = target: Induced myeloid leukemia cell differentiation protein Mcl-1 (Homo sapiens, UniProt Q07820); assay type: functional
[27] = viability loss in THP-1 monocytes – THP-1 cells, cytotoxicity control for Vif-APOBEC3G degradation inhibitor project, dose response (AID 1117359); assay type: functional; conditions: THP-1
Vero [28] = assay: cells; assay type: functional, cell-based; conditions: Chlorocebus sabaeus
[29] = antiviral protection against BTV-induced cell death – arbovirus, BSR cells, confirmation (AID 1250); assay type: functional;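 also: protection from viral cytopathic effect measured as cell viability by ATP luminescence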
[30] = target: T5, Carboxy-terminal domain RNA polymerase II polypeptide A small phosphatase 1 (Homo sapiens, UniProt Q9GZU7); assay: CTDSP1 inhibitors, concentration-response, biochemical, absorbance readout, ultra-high-throughput screen actives (AID 540297); assay type: functional
T5 sequence (Q9GZU7 whole entry): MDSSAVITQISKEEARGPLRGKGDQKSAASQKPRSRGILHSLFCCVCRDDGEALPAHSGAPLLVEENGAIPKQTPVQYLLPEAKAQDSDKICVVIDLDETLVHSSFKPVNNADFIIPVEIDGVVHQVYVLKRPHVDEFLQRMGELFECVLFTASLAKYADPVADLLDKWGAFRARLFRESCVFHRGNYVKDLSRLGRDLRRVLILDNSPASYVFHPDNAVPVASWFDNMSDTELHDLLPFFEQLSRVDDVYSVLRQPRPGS

E3 ubiquitin-protein ligase Mdm2, sequence (Q00987 whole entry): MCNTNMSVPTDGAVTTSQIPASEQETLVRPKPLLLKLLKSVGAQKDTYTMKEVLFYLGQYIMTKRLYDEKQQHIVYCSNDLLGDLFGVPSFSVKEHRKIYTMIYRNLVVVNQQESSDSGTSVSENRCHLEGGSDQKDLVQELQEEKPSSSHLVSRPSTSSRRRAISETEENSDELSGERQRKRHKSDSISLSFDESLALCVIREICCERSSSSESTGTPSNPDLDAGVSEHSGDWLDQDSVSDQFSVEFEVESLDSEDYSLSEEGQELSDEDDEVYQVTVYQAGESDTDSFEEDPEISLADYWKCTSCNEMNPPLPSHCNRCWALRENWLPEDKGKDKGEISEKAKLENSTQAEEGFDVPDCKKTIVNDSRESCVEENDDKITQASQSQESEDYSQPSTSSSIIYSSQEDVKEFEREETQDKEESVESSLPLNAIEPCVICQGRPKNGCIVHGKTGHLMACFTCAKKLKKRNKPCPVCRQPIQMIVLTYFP
Muscarinic acetylcholine receptor M1, sequence (P08482 whole entry): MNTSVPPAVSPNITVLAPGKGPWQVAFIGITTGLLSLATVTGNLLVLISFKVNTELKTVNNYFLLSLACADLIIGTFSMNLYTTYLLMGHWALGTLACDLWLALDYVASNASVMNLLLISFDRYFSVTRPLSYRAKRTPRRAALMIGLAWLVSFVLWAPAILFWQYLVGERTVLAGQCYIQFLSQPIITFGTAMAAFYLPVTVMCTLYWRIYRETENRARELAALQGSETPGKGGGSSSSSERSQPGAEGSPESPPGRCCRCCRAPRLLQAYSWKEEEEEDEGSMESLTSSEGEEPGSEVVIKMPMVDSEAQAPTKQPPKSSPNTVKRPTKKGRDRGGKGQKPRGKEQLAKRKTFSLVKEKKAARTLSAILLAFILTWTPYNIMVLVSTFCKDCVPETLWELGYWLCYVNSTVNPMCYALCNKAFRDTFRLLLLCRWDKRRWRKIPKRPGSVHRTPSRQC
Mitogen-activated protein kinase 10, sequence (P53779 whole entry): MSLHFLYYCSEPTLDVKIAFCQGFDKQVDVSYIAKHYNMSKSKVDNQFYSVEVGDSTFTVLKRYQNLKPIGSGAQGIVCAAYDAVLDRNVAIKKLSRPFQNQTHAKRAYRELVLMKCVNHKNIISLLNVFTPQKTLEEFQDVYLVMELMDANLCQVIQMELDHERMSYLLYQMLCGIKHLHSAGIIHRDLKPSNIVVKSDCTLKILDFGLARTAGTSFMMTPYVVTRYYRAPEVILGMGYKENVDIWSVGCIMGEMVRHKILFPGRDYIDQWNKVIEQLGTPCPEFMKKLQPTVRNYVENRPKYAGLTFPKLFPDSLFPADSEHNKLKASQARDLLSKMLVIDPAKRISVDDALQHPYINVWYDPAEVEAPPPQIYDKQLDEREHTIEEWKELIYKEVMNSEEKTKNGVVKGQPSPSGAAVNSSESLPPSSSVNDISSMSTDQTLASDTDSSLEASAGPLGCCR
Serine/threonine-protein phosphatase PP1-alpha catalytic subunit, sequence (P62136 whole entry): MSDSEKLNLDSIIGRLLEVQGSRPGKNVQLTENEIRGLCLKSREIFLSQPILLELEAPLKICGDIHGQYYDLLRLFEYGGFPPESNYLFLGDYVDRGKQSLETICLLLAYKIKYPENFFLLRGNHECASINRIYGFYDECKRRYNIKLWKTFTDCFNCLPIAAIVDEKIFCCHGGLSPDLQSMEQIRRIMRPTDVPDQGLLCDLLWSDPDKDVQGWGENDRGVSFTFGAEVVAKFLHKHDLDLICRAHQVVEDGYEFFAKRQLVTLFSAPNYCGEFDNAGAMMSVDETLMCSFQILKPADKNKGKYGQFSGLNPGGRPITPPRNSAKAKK
Galanin receptor type 2, sequence (O43603 whole entry): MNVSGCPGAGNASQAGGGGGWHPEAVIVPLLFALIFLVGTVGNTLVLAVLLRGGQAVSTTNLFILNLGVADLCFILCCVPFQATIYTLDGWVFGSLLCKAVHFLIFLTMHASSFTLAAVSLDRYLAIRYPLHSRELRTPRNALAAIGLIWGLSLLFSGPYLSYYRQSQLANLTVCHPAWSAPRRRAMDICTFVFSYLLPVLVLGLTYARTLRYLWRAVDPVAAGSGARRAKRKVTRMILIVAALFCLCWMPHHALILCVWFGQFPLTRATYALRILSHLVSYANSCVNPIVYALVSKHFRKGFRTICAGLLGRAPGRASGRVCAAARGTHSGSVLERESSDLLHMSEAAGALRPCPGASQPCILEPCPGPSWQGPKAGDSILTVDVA
Sphingosine 1-phosphate receptor 4, sequence (O95977 whole entry): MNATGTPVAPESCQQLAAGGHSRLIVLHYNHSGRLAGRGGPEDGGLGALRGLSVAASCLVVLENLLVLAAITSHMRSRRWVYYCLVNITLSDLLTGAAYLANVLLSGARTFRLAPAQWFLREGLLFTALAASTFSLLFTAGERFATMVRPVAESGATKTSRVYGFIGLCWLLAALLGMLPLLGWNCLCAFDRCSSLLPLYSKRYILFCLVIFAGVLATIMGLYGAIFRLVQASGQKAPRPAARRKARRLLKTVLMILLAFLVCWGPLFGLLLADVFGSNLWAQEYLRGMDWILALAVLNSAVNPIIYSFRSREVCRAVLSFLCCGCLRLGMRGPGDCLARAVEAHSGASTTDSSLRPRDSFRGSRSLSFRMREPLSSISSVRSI
Sphingosine 1-phosphate receptor 1, sequence (P21453 whole entry): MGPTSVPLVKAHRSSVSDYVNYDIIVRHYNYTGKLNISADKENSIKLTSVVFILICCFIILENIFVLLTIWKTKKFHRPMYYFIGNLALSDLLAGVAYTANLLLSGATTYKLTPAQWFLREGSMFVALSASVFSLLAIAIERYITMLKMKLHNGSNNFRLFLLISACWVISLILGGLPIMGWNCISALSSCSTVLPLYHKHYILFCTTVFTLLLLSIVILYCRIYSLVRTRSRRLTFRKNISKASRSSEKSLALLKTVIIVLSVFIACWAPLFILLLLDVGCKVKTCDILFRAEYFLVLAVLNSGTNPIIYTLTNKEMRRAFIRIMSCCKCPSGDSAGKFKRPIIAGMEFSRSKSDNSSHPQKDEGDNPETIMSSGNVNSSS
Induced myeloid leukemia cell differentiation protein Mcl-1, sequence (Q07820 whole entry): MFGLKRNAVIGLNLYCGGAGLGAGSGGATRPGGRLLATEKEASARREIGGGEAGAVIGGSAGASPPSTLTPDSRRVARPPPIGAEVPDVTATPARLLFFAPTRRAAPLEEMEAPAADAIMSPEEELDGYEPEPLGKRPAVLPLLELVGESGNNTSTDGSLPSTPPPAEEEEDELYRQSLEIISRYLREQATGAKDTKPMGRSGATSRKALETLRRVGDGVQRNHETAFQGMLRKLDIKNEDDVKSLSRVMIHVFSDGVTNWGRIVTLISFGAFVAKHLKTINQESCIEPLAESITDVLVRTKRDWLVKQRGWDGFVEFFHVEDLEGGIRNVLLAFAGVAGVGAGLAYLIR

## Cn1cc(-c2cc(F)c(CN3C(=O)C(=O)c4cccc(F)c43)c(F)c2)cn1
[1]
  EC50: 1.03 µM (active)

## COc1cccc(-c2ccc(CN(C)C[C@@H]3Oc4cc(C#C[C@@H](C)O)ccc4S(=O)(=O)N([C@@H](C)CO)C[C@@H]3C)cc2)c1
[2]
  AC50: 32.6 µM (active)

## Cc1c(C)n(Cc2ccccc2)c2ccc(C(=O)OCCN(C)C)cc12 [INDOCATE]
[3]
  IC50: 12.8 µM (inactive)
[4]
  IC50: 8.78 µM (inactive)
[5]
  IC50: 11.8 µM (inactive)
[6]
  IC50: > 6.67 µM (inactive)
[7]
  IC50: 11.3 µM (inactive)
[8]
  IC50: 12 µM (inactive)
[9]
  IC50: 5.47 µM (inactive)
cells
  IC50: 14.9 µM (inactive)
[10]
  IC50: 3.84 µM (active)

## COc1ccc(N2C(=O)CSC23C(=O)N2CCCc4cccc3c42)cc1 (configuration not stated)
[11]
  IC50: > 83.3 µM (inactive)
[12]
  IC50: > 109 µM (inactive)

## CCOc1ccc(NC(S)=Nc2ccc3nsnc3c2)cc1
[13]
  IC50: 5.72 µM (active)
[14]
  IC50: > 67 µM (not active)
[15]
  IC50: 8.78 µM (active)
[16]
  AC50: 4.61 µM (active)
[17]
  IC50: 2.32 µM (active)

## Cc1cc(C(=O)Nc2cccc3ccccc23)n(-c2ccccc2)n1
[18]
  EC50: 25 µM (not active)

## CCc1ccccc1NC(=O)CN(C)C(=O)Cn1ncc(Cl)c(Cl)c1=O
[19]
  AC50: 11 µM (active)
Galanin receptor type 2
  IC50: 7.62 µM (active)
[20]
  AC50: 13.2 µM (active)
[21]
  IC50: 2.11 µM (active)
[22]
  IC50: 13.6 µM (not active)
[23]
  AC50: 4.59 µM (active)

## COc1ccc(-c2ccc3c(c2)O[C@@H](CN(C)Cc2ccc(-c4ccccc4)cc2)[C@@H](C)CN([C@@H](C)CO)S3(=O)=O)cc1
[2]
  AC50: 32.6 µM (active)

## c1csc(-c2cnc3ccccc3n2)c1
[24]
  IC50: 34 µM (not active)

## Cc1noc(C)c1COc1ccc(C(=O)NCc2ccccn2)cc1
[18]
  EC50: 2.96 µM (not active)

## Cn1cc(-c2ccc(CN3C(=O)C(=O)c4c(F)ccc(F)c43)c(F)c2)cn1
[1]
  EC50: 1.23 µM (active)

## O=C(c1cccc(F)c1)N1CCCC(C(=O)N2CCCC2)C1 (configuration not stated)
[24]
  IC50: > 93.1 µM (not active)

## CCN(CC)CCNC(=O)C1CCN(S(=O)(=O)c2c(C)noc2/C=C/c2ccccc2F)CC1
Vero [25]
  IC50: 25 µM (active)

## Cc1cc(C(=O)COC(=O)c2cc(O)c3ccccc3c2O)c(C)n1CC1CCCO1 (configuration not stated)
[26]
  IC50: 3.09 µM (active)
[27]
  CC50: 25.9 µM (active)

## CN(C)CCNC(=O)c1cc2sc3ccccc3c2s1
Vero [28]
  IC50: 21 µM (active)
Vero [25]
  IC50: 24.5 µM (active)

## O=C(COC(=O)c1ccc(NS(=O)(=O)c2cccs2)cc1)Nc1nc2c(F)c(F)c(F)cc2s1
[29]
  IC50: 46.2 µM (active)
[30]
  IC50: 4.05 µM (active)
